According to patent US10351621B2, “Anti-histone therapy in acute kidney injury” (Immunomedics, Inc., priority 2014, dated 2019):
Entries after “also recorded” stand apart in the source; their conditions may differ.

Experiments:
HK-2 cells = test: NETs cytotoxicity to TCs (conditioned NETs media, LDH assay); format: cell-based, human; details: 20 h after addition; neutrophils pre-treated with PAD inhibitor 200 μM
Experimental: Neutrophils were stimulated by PMA, histones, or necrotic TCs derived conditioned media and 3 hours after incubation the supernatant was replaced with fresh media (RPMI), and the bottom NETs were collected to avoid the contamination of the media with exogenous PMA or necrotic TCs or histones as previously described (Najmeh et al., 2015, J Vis Exp 16:98). After centrifugation (1200 rpm, 5 min), the supernatants were applied to TCs (1:1). At 20 hours after addition of conditioned NETs media, TCs injury was evaluated by LDH assay. To investigate whether the formed NETs affect fresh neutrophils, conditioned NETs media was applied to fresh neutrophils and 4 h after incubation, additional NET formation in fresh neutrophils was evaluated by immunostaining.
A cell death detection (TUNEL) kit (Roche) was used to quantify dead cells in accordance with the manufacturer's instructions. Systemic dead cell derived DNAs in plasma were quantified by PICOGREEN® dsDNA assay kit (Thermo Fisher Scientific). In vitro, cytotoxicity was evaluated by LDH assay (Roche).

human neutrophils = test: In vitro NET formation in neutrophils stimulated by PMA or necrotic TCs media; format: cell-based; details: PAD inhibitor 200 μM; PMA 25 nM or necrotic TCs media
Experimental: Neutrophils were isolated from human healthy volunteers using standard dextran sedimentation followed by Ficoll-Hypaque density centrifugation procedures (Brinkmann et al., 2004, Science 303:1532-1535). Blood donors provided written informed consent forms approved by the local ethical committee. Neutrophils were suspended in RPMI medium (2×10^5˜2×10^6 cell/ml) and seeded into 8-well microns slides or 12˜96-well plates (Ibidi, Martinsried, Germany) in a 5% carbon dioxide atmosphere at 37° C. for 30 minute before stimulation. The neutrophils were placed in normal or hypoxia condition (1% oxygen) for 3, 6, or 24 hours, or stimulated by Phorbol 12-myristate 13-acetate (PMA, 25 nM, Sigma-Aldrich), total calf thymus histones (10, 50, or 100 μg/ml), and necrotic conditioned media from TCs (control, hypoxia, H2O2 stimulation) for 3-4 hours. […]
(§1) In human neutrophil experiments, NETs were quantified by the MPO-DNA sandwich ELISA method using anti-DNA abs (Roche, Mannheim, Germany) and anti-human MPO abs (AbD Serotec) as described (Nakazawa, 2014, J Am Soc Nephrol 25:990-7). In mouse neutrophils experiments, BAL NETs (undiluted) and plasma NETs (×2 diluted in PBS) were evaluated by NE-DNA complex using anti-DNA abs and anti-mouse NE abs (Santa Cruz) as described (Sayah et al., 2015, Am J Respir Crit Care Med 191:455-63). The CitH3 positive NETs were quantified using ImageJ software.

[1] = system: bilateral IRI kidney mice; test: Bilateral IRI kidney model mice (post-ischemic AKI); format: in vivo; details: ischemia 35 min, reperfusion 24 h
Experimental: C57BL/6N male mice were procured from Charles River Laboratories (Sulzfeld, Germany). 6-8 week-old mice (N=5-14) were anesthetized before renal pedicle clamping (unilateral: 15, 25, 35, or 45 min) with a microaneurysm clamp via flank incisions (Medicon, Tuttlingen, Germany). Body temperature was maintained at between 37° C. and 38° C. throughout the procedure by placing the mice on a heating pad. After clamp removal, recovery of blood flow to the kidney was confirmed as evidenced by returning to its original color, before closing the wound. To maintain fluid balance, all mice were supplemented with 0.5 ml of 0.9% NaCl administered peritoneally. Mice were killed after 0 min, 15 min, 30 min, 6 h, 12 h, 15 h, 24 h, 2 d, 3 d, 7 d and 10 days after surgery. Bilateral IRI mice (ischemia 35 min, reperfusion 24 h) were treated with PAD inhibitor (20 mg/kg, intraperitoneal injection; i.p: CALBIOCHEM®), anti-histone IgGs (20 mg/kg, i.p; clone BWA3; IMMUNOMEDICS®, Morris Plains, N.J.), necrosis inhibitor combination (Necrostatinl/Enzo 1.65 mg/kg i.p, Ferrostatin/CALBIOCHEM®, 2 mg/kg i.p, Ciclosporin/Novartis 10 mg/kg, i.v) 2 hours before IRI surgery. Neutrophil depletion was performed as described previously (Huang et al., 2015, Hepatology 62:600-14) with an i.p. injection of 500 μg anti-Ly6G IgGs (1A8) (BIOXCELL®) or control IgGs 24 and 2 hours before IRI surgery.
For immunofluorescence, the tissues after sacrifice were fixed with 4% paraformaldehyde for 2 hours, dehydrated with 30% sucrose for 24 hours at 4° C., frozen in OCT (TISSUE-TEK®, OCT compounds, SAKURA®) and cryosectioned (5 μm thick). The CitH3 positive NETs and TUNEL positive necrotic cells were quantified using ImageJ software.
For immunostaining, rat anti-mouse Ly6b (neutrophils) ab (AbD Serotec, Oxford, United Kingdom), rabbit citrullinated histone 3 ab (Abcam, Cambridge, United Kingdom), or goat anti neutrophil elastase ab (Santa Cruz Biotechnology, USA) were used. To count the positive cells, 3 high-power fields (100×) were analyzed. BUN and creatinine were measured using urea or creatinine FS kits (DiaSys Diagnostic Systems, Holzheim, Germany) according to the manufacturer's protocols. Mice plasma was analysed for IL-6 and TNF cytokine secretion by ELISA (BD Pharmingen, San Diego, Calif.). Plasma histone was analyzed by western blotting. To prepare a control model with high concentration of histone, lipopolysaccharide (LPS, 20 mg/kg, i.p) was injected into WT mice (8 weeks age, male), and blood samples were taken 6 hours after LPS injection (Li et al., 2011, Surgery 150:442-51). Bronchoalveolar lavage fluid (BAL) in IRI mice was performed as previously described (Sayah et al., 2015, Am J Respir Crit Care Med 191:455-63). The BAL cell number and supernatant NETs were evaluated by cell counter and NE-DNA complexes ELISA, respectively.
as §1

[2] = system: IRI-induced kidney damage; details: chemical inhibitors of necroptosis, ferroptosis, MPT-RN; cited from earlier work
DDD of PKA = DDD of PKA (Homo sapiens, UniProt P13861); details: cited from earlier work
[3] = system: RII and RI isoforms of PKA; details: Gold et al. 2006; cited from earlier work
glomeruli = test: Histone toxicity on glomeruli ex vivo; format: cell-based, mice
Excerpt: Whether glomerular toxicity of extracellular histones is TLR2/4-dependent is not clear. To answer this question we exposed glomeruli isolated from wild type and Tlr2/4-deficient mice to histones ex vivo. […] We also studied the effects of extracellular histones on glomeruli in vivo. Because intravenous histone injection kills mice immediately by pulmonary microvascular injury (Xu et al., 2009, Nat Med 15:1318), we injected histones directly into the left renal artery in anaesthetized mice. Unilateral histone injection caused glomerular lesions within 24 hours ranging from minor endothelial fibrinogen positivity to thrombotic microangiopathy and global glomerular necrosis (not shown). The contralateral kidney remained unaffected (not shown).

[4] = system: glomerular endothelial cells, podocytes, and parietal epithelial cells; test: Histone killing of glomerular cells (summary); format: cell-based, mouse; details: histones from calf thymus or released by neutrophils undergoing NETosis
Experimental: Mouse glomerular endothelial cells (GEnC (46)), podocytes (47)), and parietal epithelial cells (PECs, (48)) were cultured in 96 well plates with RPMI media without FCS and PS and allowed to adhere overnight. The cells were stimulated with the different concentrations of total calf thymus histones (10, 20, 30, 40, 50 and 100 μg/ml) with or without histone antibody for another 18-20 h. Cytotoxicity assay was performed using Promega CELLTITER 96® non-radioactive cell proliferation assay (MTT Assay Kit, Mannheim, Germany). Glomerular cells were also incubated with histones with or without anti-histone IgG, heparin and/or aPC. LDH assay using cytotoxicity detection kit (Roche Diagnostics, Mannheim, Germany) was used to assess cell death.

[5] = system: GBM antiserum-induced glomerulonephritis in mice; test: Anti-GBM nephritis model, delayed onset of treatment (established disease); format: in vivo
Experimental: C57BL/6 mice were procured from Charles River (Sulzfeld, Germany). 6-8 week old mice received an intravenous injection of 100 μl of anti-GBM serum (sheep anti-rat glomeruli basement membrane serum procured from Probetex INC, PTX-001). Urine samples were collected at different time points after antiserum injection to evaluate the functional parameters of kidney damage. On day 7 the mice were sacrificed by cervical dislocation to collect plasma and kidney tissue. Kidneys were kept at −80° C. for protein isolation and in RNALATER® solution at −20° C. for RNA isolation. A part of the kidney was also kept in formalin to be embedded in paraffin for histological analysis (Teixeira et al., 2005, Kidney Int 67:514B). We treated groups of mice either with 20 mg/kg, i.p. control IgG or anti-histone antibody (clone BWA-3) to neutralize the effects of extracellular histones.
Renal sections of 2 μm were stained with periodic acid-Schiff reagent. Glomerular abnormalities were scored in 50 glomeruli per section by a blinded observer. The following criteria were assessed in each of the 50 glomeruli and scored as segmental or global lesions if less or more than 50% of the glomerular tuft were affected by focal necrosis and capsule adhesions. Cellular crescents were assessed separately when more than a single layer of PECs were present around the inner circumference of Bowman' s capsule. Immunostaining was performed as described using the following primary antibodies: for WT-1/nephrin, neutrophils (Serotec, Oxford, UK), Mac-2 (Cedarlane, Ontario, Canada), TNF-α (Abcam, Cambridge, UK) and fibrinogen (Abcam, Cambridge, UK). Stained glomerular cells were quantified in 50 glomeruli per section.
We mext examined whether histone neutralization could be therapeutic in established disease. […] In another series of experiments we initiated anti-histone IgG, heparin, and aPC treatments 24 hours after GBM antiserum injection, a time point where massive proteinuria and elevated BUN were already established (not shown). […]

PECs = test: Histone-induced activation of parietal epithelial cells; format: cell-based, mouse
Excerpt: Mitogenic plasma proteins leaking from injured glomerular capillaries cause PEC hyperplasia and glomerular crescent formation (Ryu et al., 2012, J Pathol 228:482; Smeets et al., 2009, J Am Soc Nephrol 20:2593; Smeets et al., 2009, J Am Soc Nephrol 20:2604).
Previous reports documented that heparin and recombinant activated protein C (aPC) also block histone toxicity (Xu et al., 2009, Nat Med 15:1318; Wildhagen et al., 2013, Blood 123:1098). […] Thus, extracellular histones activate PECs in a TLR2/4-dependent manner, a process that may act synergistically with other triggers of PEC hyperplasia during crescent formation and that can be blocked by anti-histone IgG, aPC or heparin.

[6] = in vivo; cited from earlier work

Chain of DDD of PKA (P13861 2-45 limits assumed): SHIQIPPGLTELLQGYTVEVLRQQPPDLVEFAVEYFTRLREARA

With NC(=O)[C@H](CCCN=C(N)CCl)NC(=O)c1ccccc1 [PAD inhibitor, Cl-amidine] the “tubular cell injury by conditioned NETs media (LDH assay)” value (HK-2 cells) was “abrogated; also recorded: reduced the damage of TCs”, the “induced NET formation in neutrophils (MPO-DNA complex of supernatants)” value (human neutrophils) was “abrogated” and the “NET components in plasma” value [1] was “substantially reduced”. The “expression of AKI marker genes” value [1] was “significantly reduced”, the “renal function (plasma creatinine, plasma urea)” value [1] was “significantly reduced” and the “tissue necrotic area / tubular necrosis” value ([1]; PAS and TUNEL staining) was “significantly reduced”. The “protective effect on IRI kidney (overall)” value ([1]; listed as NET inhibitor) was “ameliorates”, the “protective effect on IRI kidney (overall)” value ([1]; listed as inhibitor of NET formation) was “protected” and the “abundance of NETs in the post-ischemic kidney” value ([1]; treated before surgery) was “substantially reduced”.
In the case of CCOC(=O)c1ccc(NC2CCCCC2)c(N)c1 [ferrostatin 1], the kidney injury [2] is listed as “did not completely prevent”.
In the case of CN1C(=O)C(Cc2c[nH]c3ccccc23)NC1=S (stereo not shown) [necrostatin 1], the kidney injury [2] is given as “did not completely prevent”.
In the case of CC[C@H]1C[C@H](C)[C@@]2(NC1=O)O[C@@H](C[C@H](O)[C@@H](C)CC/C=C/C=C(\C)[C@@H]1C/C=C/C=C/[C@H](O)[C@H](C)[C@@H](O)[C@@H](CCC(C)=O)C(=O)N[C@@H](C(C)C)C(=O)N[C@@H](Cc3cccc(O)c3)C(=O)N3CCC[C@H](N3)C(=O)O1)[C@H](C)[C@H](O)[C@@H]2C [sanglifehrin A], the kidney injury [2] is listed as “did not completely prevent”.
In the case of “RII selective AD sequence, SEQ ID NO:21 QIEYLAKQIVDNAIQQA [AKAP-IS]”, the Kd (DDD of PKA; Alto et al. 2003, read-out: binding constant for DDD) is given as 0.4 nM and the “affinity for the MI DDD sequence” value (DDD of PKA; Hundsrucker et al. 2006) is given as “particularly high affinities”.
For “SuperAKAP-IS: SEQ ID NO:30 QIEYVAKQIVDYAIHQA”, the “selectivity for the RII isoform of PKA compared with the RI isoform” value [3] is given as “five order of magnitude higher”.
For heparin, the “histone toxicity on glomeruli ex vivo” value (glomeruli) was “completely blocked”, the “killing of glomerular cells by histones / extracellular histone toxicity in vitro” value [4] was “prevented” and the “renal dysfunction and structural injury during severe GN” value ([5]; delayed onset of histone blockade) was “protects”. For the same compound, the “severe glomerulonephritis in mice with established disease” value ([5]; mouse, in vivo) was “abrogated”, the “all aspects of GBM antiserum-induced severe GN” value ([5]; pre-emptive as well as delayed onset of histone neutralization) was “abrogates” and the “PEC activation by histones” value (PECs) was “protective effect”.
For “veltuzumab: humanized IgG1 antibody against CD20”, the “immunogenicity in subjects compared with rituximab” value [6] is listed as “less immunogenic”.
